This note sets out measurements from patent publication US9376425B2, “Heterocyclic compounds as MDM2 inhibitors for the treatment of cancer” (AMGEN INC., priority 2011, dated 2016).

The IC50 is the midpoint of a concentration-inhibition curve. High values mean a need for much substance, low ones inhibition by little substance.

T1 sequence (Q00987 1-188): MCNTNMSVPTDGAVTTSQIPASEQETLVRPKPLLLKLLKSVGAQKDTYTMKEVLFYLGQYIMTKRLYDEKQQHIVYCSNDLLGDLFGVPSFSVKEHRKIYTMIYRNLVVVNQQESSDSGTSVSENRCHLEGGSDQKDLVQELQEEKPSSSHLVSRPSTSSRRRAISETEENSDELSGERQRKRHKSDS

This assay has as its target T1, human MDM2 (GST-hMDM2 aa 1-188), interaction with biotinylated-p53 (aa 1-83) (Homo sapiens, UniProt Q00987).
T1 construct: Amino acid residues 1-188 of human MDM2 were expressed; made in house; host or cells: Escherichia coli
Description: Homogenous Time-Resolved Fluorescence Assay (HTRF1 assay), inhibition of HDM2-p53 interaction. It counts as binding. The conditions noted are these: 2.5 nM GST-hMDM2, 5 nM biotinylated-p53, 200 mM KF. On the procedure: Homogenous Time-Resolved Fluorescence Assay (HTRF1 Assay)
Residues 1-83 of human p53 were expressed as an amino-terminal AviTag™-TrxA-6xHis fusion protein (biotinylated p53) in E. coli. Each protein was purified from cell paste by affinity chromatography.
Specifically, 10 uL of GST-hMDM2 was incubated with 10 ul of diluted compound (various concentrations, serially diluted) in 10% DMSO for 20 minutes at room temperature. 20 uL of biotinylated-p53 was added to the GST-hMDM2+ compound mixture, and then incubated at room temperature for 60 min. 10 uL of detection buffer consisting of SA-XLent, anti-GST cryptate antibody and KF was added to GST-hMDM2, biotinylated-p53 and compound reaction and left at room temperature to reach equilibrium for >4 hrs. The final concentration of DMSO in the reaction was 2%. Time-resolved fluorescence readings were measured on a microplate multilabel reader. Percentage of inhibition was calculated relative to nutlin-3.
`COc1ccc([C@@H]2[C@@H](c3cccc(Cl)c3)OC(CC(=O)O)C(=O)N2CC2CC2)cn1` (single isomer, unassigned) [Example 74] yielded a 50% inhibitory concentration (IC50) of 4.5 µM.
With `COc1ccc([C@@H]2[C@@H](c3cccc(Cl)c3)OC(CC(=O)O)C(=O)N2CC2CC2)cc1` (single isomer, unassigned) [Example 75], half-maximal inhibition (IC50) required 3.7 µM.
Compound `COc1ccc([C@@H]2[C@@H](c3cccc(Cl)c3)OC(CC(=O)O)C(=O)N2CC2CC2)cc1` (single isomer, unassigned) [Example 76] had an IC50 of 1.4 µM.
On to `O=C(O)CC1O[C@H](c2cccc(Cl)c2)[C@@H](c2ccc(Cl)c(F)c2)N(CC2CC2)C1=O` (single isomer, unassigned) [Example 77], for which the concentration for half-maximal inhibition (IC50) stood at 0.3 µM.
`O=C(O)CC1O[C@H](c2cccc(Cl)c2)[C@@H](c2ccc(Cl)c(F)c2)N(CC2CC2)C1=O` (single isomer, unassigned) [Example 78] displayed an IC50 of 0.8 µM.
To `O=C(O)CC1O[C@H](c2cccc(Cl)c2)[C@@H](c2ccc(Cl)cc2Br)N(CC2CC2)C1=O` (single isomer, unassigned) [Example 79] belongs 70.2 µM; to `O=C(O)CC1O[C@H](c2cccc(Cl)c2)[C@@H](c2ccc(Cl)cc2Br)N(CC2CC2)C1=O` (single isomer, unassigned) [Example 80], 14.8 µM; to `O=C(O)CC1O[C@H](c2cccc(Cl)c2)[C@@H](c2ccc(C(F)(F)F)nc2)N(CC2CC2)C1=O` (single isomer, unassigned) [Example 81], 15.7 µM.
The compound `O=C(O)CC1O[C@H](c2cccc(Cl)c2)[C@@H](c2ccc(C(F)(F)F)nc2)N(CC2CC2)C1=O` (single isomer, unassigned) [Example 82] returned an IC50 of 30 µM.
As to `O=C(O)CC1O[C@H](c2cc(F)cc(Cl)c2)[C@@H](c2ccc(Cl)cc2)N(CC2CC2)C1=O` (single isomer, unassigned) [Example 83], it took 0.3 µM to reach half-maximal inhibition (IC50).
As for `O=C(O)CC1O[C@H](c2cc(F)cc(Cl)c2)[C@@H](c2ccc(Cl)cc2)N(CC2CC2)C1=O` (single isomer, unassigned) [Example 84], the figure is 0.3 µM.
As for `O=C(O)CC1O[C@H](c2cccc(F)c2)[C@@H](c2ccc(Cl)cc2)N(CC2CC2)C1=O` (single isomer, unassigned) [Example 85], the figure is 1.6 µM; as for `O=C(O)CC1O[C@H](c2cccc(F)c2)[C@@H](c2ccc(Cl)cc2)N(CC2CC2)C1=O` (single isomer, unassigned) [Example 86], 0.8 µM.
Consider `O=C(O)CC1O[C@H](c2cncc(Cl)c2)[C@@H](c2ccc(Cl)cc2)N(CC2CC2)C1=O` (single isomer, unassigned) [Example 87], for which the IC50 came to 1.8 µM.
Turning to `O=C(O)CC1O[C@H](c2cncc(Cl)c2)[C@@H](c2ccc(Cl)cc2)N(CC2CC2)C1=O` (single isomer, unassigned) [Example 88], the IC50 was 2.1 µM.
As to `COc1cccc([C@H]2OC(CC(=O)O)C(=O)N(CC3CC3)[C@@H]2c2ccc(Cl)cc2)c1` (single isomer, unassigned) [Example 89], 6.1 µM corresponded to half-maximal inhibition (IC50).
`COc1cccc([C@H]2OC(CC(=O)O)C(=O)N(CC3CC3)[C@@H]2c2ccc(Cl)cc2)c1` (single isomer, unassigned) [Example 90] came in with a half-inhibitory concentration (IC50) of 3.5 µM. Against the preceding compound, the IC50 is about 1.7-fold lower.
Take `O=C(O)CC1O[C@H](c2ccnc(Cl)c2)[C@@H](c2ccc(Cl)cc2)N(CC2CC2)C1=O` (single isomer, unassigned) [Example 91]: the IC50 is 0.6 µM.
Compound `COc1cncc([C@H]2OC(CC(=O)O)C(=O)N(CC3CC3)[C@@H]2c2ccc(Cl)cc2)c1` (single isomer, unassigned) [Example 92] came in with an IC50 of 19.5 µM.
As for `O=C(O)CC1O[C@H](c2cc(Cl)cc(Cl)c2)[C@@H](c2ccc(Cl)cc2)N(CC2CC2)C1=O` (single isomer, unassigned) [Example 93], the figure is 0.3 µM.
`O=C(O)CC1O[C@H](c2ccc(F)c(Cl)c2)[C@@H](c2ccc(Cl)cc2)N(CC2CC2)C1=O` (single isomer, unassigned) [Example 94]: half-maximal inhibition (IC50) was put at 0.6 µM.
As for `O=C(O)CC1O[C@H](c2cccc(OC(F)(F)F)c2)[C@@H](c2ccc(Cl)cc2)N(CC2CC2)C1=O` (single isomer, unassigned) [Example 95], the figure is 33.5 µM; as for `O=C(O)CC1O[C@H](c2cc(F)cc(F)c2)[C@@H](c2ccc(Cl)cc2)N(CC2CC2)C1=O` (single isomer, unassigned) [Example 96], 1.1 µM; as for `O=C(O)CC1O[C@H](c2cc(F)cc(F)c2)[C@@H](c2ccc(Cl)cc2)N(CC2CC2)C1=O` (single isomer, unassigned) [Example 97], 0.5 µM.
Consider `N#Cc1cc(F)cc([C@H]2OC(CC(=O)O)C(=O)N(CC3CC3)[C@@H]2c2ccc(Cl)cc2)c1` (single isomer, unassigned) [Example 98], for which the IC50 is 1.8 µM.
Consider `N#Cc1cc(F)cc([C@H]2OC(CC(=O)O)C(=O)N(CC3CC3)[C@@H]2c2ccc(Cl)cc2)c1` (single isomer, unassigned) [Example 99], for which it took 1.1 µM to reach half-maximal inhibition (IC50).
With `O=C(O)CC1O[C@H](c2cc(Cl)ccc2F)[C@@H](c2ccc(Cl)cc2)N(CC2CC2)C1=O` (single isomer, unassigned) [Example 100], the IC50 was 1.1 µM.
As for `O=C(O)CC1O[C@H](c2cc(Cl)ccc2F)[C@@H](c2ccc(Cl)cc2)N(CC2CC2)C1=O` (single isomer, unassigned) [Example 101], the figure is 0.6 µM.
As for `Cc1cccc([C@H]2OC(CC(=O)O)C(=O)N(CC3CC3)[C@@H]2c2ccc(Cl)cc2)c1` (single isomer, unassigned) [Example 102], the concentration for half-maximal inhibition (IC50) amounted to 6.5 µM.
As for `Cc1cccc([C@H]2OC(CC(=O)O)C(=O)N(CC3CC3)[C@@H]2c2ccc(Cl)cc2)c1` (single isomer, unassigned) [Example 103], the figure is 3.4 µM.
For the compound `O=C(O)CC1O[C@H](c2cc(Cl)cc(Br)c2)[C@@H](c2ccc(Cl)cc2)N(CC2CC2)C1=O` (single isomer, unassigned) [Example 104], half-maximal inhibition (IC50) required 0.5 µM. This IC50 is about 6.8-fold lower than that of the compound before.
Consider `O=C(O)CC1O[C@H](c2cc(Cl)cc(Br)c2)[C@@H](c2ccc(Cl)cc2)N(CC2CC2)C1=O` (single isomer, unassigned) [Example 105], for which the IC50 is 0.3 µM. Against the preceding compound, the IC50 is about 1.7-fold lower.
As for `O=C(O)C[C@H]1O[C@H](c2cc(Cl)cc(-c3cn[nH]c3)c2)[C@@H](c2ccc(Cl)cc2)N(CC2CC2)C1=O` (single isomer, unassigned) [Example 106], the figure is 5.2 µM; as for `O=C(O)C[C@@H]1O[C@H](c2cc(Cl)cc(-c3cn[nH]c3)c2)[C@@H](c2ccc(Cl)cc2)N(CC2CC2)C1=O` (single isomer, unassigned) [Example 107], 3.8 µM.
As for `O=C(O)C[C@H]1O[C@H](c2cc(Cl)cc(-c3cncnc3)c2)[C@@H](c2ccc(Cl)cc2)N(CC2CC2)C1=O` (single isomer, unassigned) [Example 108], the figure is 4.3 µM; as for `O=C(O)C[C@@H]1O[C@H](c2cc(Cl)cc(-c3cncnc3)c2)[C@@H](c2ccc(Cl)cc2)N(CC2CC2)C1=O` (single isomer, unassigned) [Example 109], 2.8 µM.
`CS(=O)(=O)c1cc(Cl)cc([C@H]2O[C@H](CC(=O)O)C(=O)N(CC3CC3)[C@@H]2c2ccc(Cl)cc2)c1` (single isomer, unassigned) [Example 110] had a half-inhibitory concentration (IC50) of 3.7 µM. The IC50 values of the last two compounds are within 1.5-fold of each other.
